Data as given in PubChem BioAssay AID192 (DTP/NCI, 2004).
Where “and” joins values, the source holds several entries; their conditions need not be identical. Equal entries are not always repeated. Toxic doses and inconclusive results are not listed. The calls were made as follows: active = survival T/C of 150% or more; inactive = T/C below 125% in these data.

System: BDF1 mice, B16 melanoma ip, median survival T/C
Assay: NCI In Vivo Anticancer Drug Screen. Data for tumor model B16 Melanoma (intraperitoneal) in B6D2F1 (BDF1) mice
Conditions: endpoint: median survival time, higher = longer survival
Method in brief: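 Mice with transplantable tumors; drug vs vehicle groups; endpoint survival or tumor size; value = T/C.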

[1] = dose: 6.25 mg/kg/injection, schedule: Q01DX009 (ip), vehicle: saline with Tween-80
[2] = dose: 12.5 mg/kg/injection, schedule: Q01DX009 (ip), vehicle: saline with Tween-80
[3] = dose: 25.0 mg/kg/injection, schedule: Q01DX009 (ip), vehicle: saline with Tween-80
[4] = dose: 12.5 mg/kg/injection, schedule: Q01DX009 (ip), vehicle: water
[5] = dose: 25.0 mg/kg/injection, schedule: Q01DX009 (ip), vehicle: water
[6] = dose: 50.0 mg/kg/injection, schedule: Q01DX009 (ip), vehicle: water

Measured: T/C

O=Cc1ccc([N+](=O)[O-])s1
inactive: dose: 3.12 mg/kg/injection, schedule: Q01DX009 (ip), vehicle: saline with Tween-80 99 % of control | [1] 96 % of control | [2] 96 % of control | [3] 86 % of control

NOCc1cccc(CON)c1
inactive: dose: 12.5 mg/kg/injection, schedule: Q04DX003 (ip), vehicle: saline 123 % of control | dose: 25.0 mg/kg/injection, schedule: Q04DX003 (ip), vehicle: saline 118 % of control | dose: 50.0 mg/kg/injection, schedule: Q04DX003 (ip), vehicle: saline 115 % of control

CCCCCCCCCCCCCCCCCC(=O)NCNC(=O)CCCCCCCCCCCCCCCCC
inactive: dose: 2.5 mg/kg/injection, schedule: Q01DX009 (ip), vehicle: saline with Tween-80 102 % of control | dose: 4.68 mg/kg/injection, schedule: Q04DX003 (ip), vehicle: saline with Tween-80 86 % of control | dose: 5.0 mg/kg/injection, schedule: Q01DX009 (ip), vehicle: saline with Tween-80 100 % of control | dose: 9.37 mg/kg/injection, schedule: Q04DX003 (ip), vehicle: saline with Tween-80 97 % of control | dose: 10.0 mg/kg/injection, schedule: Q01DX009 (ip), vehicle: saline with Tween-80 87 % of control

CCOC(=O)NC(CC)CO (centres undefined)
inactive: dose: 100.0 mg/kg/injection, schedule: Q01DX009 (ip), vehicle: Klucel (hydroxypropylcellulose) (HPC) 100 % of control | dose: 100.0 mg/kg/injection, schedule: Q04DX003 (ip), vehicle: Klucel (hydroxypropylcellulose) (HPC) 90 % of control | dose: 200.0 mg/kg/injection, schedule: Q01DX009 (ip), vehicle: Klucel (hydroxypropylcellulose) (HPC) 97 % of control | dose: 200.0 mg/kg/injection, schedule: Q04DX003 (ip), vehicle: Klucel (hydroxypropylcellulose) (HPC) 100 % of control | dose: 400.0 mg/kg/injection, schedule: Q01DX009 (ip), vehicle: Klucel (hydroxypropylcellulose) (HPC) 102 % of control | dose: 400.0 mg/kg/injection, schedule: Q04DX003 (ip), vehicle: Klucel (hydroxypropylcellulose) (HPC) 95 % of control

c1ccc2c[n+](CCCCCCCCCC[n+]3ccc4ccccc4c3)ccc2c1
inactive: dose: 2.5 mg/kg/injection, schedule: Q01DX009 (ip), vehicle: saline 88 % of control | dose: 5.0 mg/kg/injection, schedule: Q01DX009 (ip), vehicle: saline 97 % of control | dose: 10.0 mg/kg/injection, schedule: Q01DX009 (ip), vehicle: saline 97 % of control | dose: 10.0 mg/kg/injection, schedule: Q04DX003 (ip), vehicle: saline 92 % of control

Cc1cnc([Se])[nH]c1=O
inactive: dose: 6.25 mg/kg/injection, schedule: Q01DX009 (ip), vehicle: water 100 % of control | [4] 96 % of control | [5] 96 % of control | [6] 101 % of control

CC(C)(c1ccccc1)c1ccc(O)cc1
inactive: dose: 37.5 mg/kg/injection, schedule: Q01DX009 (ip), vehicle: other 97 % of control | dose: 75.0 mg/kg/injection, schedule: Q01DX009 (ip), vehicle: other 100 % of control | dose: 150.0 mg/kg/injection, schedule: Q01DX009 (ip), vehicle: other 94 % of control | dose: 150.0 mg/kg/injection, schedule: Q04DX003 (ip), vehicle: saline + alcohol 90 % of control | dose: 300.0 mg/kg/injection, schedule: Q01DX009 (ip), vehicle: other 94 % of control | dose: 300.0 mg/kg/injection, schedule: Q04DX003 (ip), vehicle: saline + alcohol 104 % of control | dose: 600.0 mg/kg/injection, schedule: Q04DX003 (ip), vehicle: saline + alcohol 95 % of control

CN1CCC=C(CN2c3ccccc3Sc3ccc(Cl)cc32)C1
inactive: dose: 12.5 mg/kg/injection, schedule: Q01DX009 (ip), vehicle: saline 95 % of control | dose: 25.0 mg/kg/injection, schedule: Q01DX009 (ip), vehicle: saline 94 % of control

N#CCc1ccc(Cl)c(Cl)c1
inactive: [1] 90 % of control | [2] 88 % of control | [3] 95 % of control

O=C(O)C1CC(c2ccccc2)=NN1c1ccccc1 (centres undefined)
inactive: [4] 104 % of control | [5] 99 % of control and 100 % of control | [6] 99 % of control | dose: 100.0 mg/kg/injection, schedule: Q01DX009 (ip), vehicle: water 97 % of control and 110 % of control | dose: 200.0 mg/kg/injection, schedule: Q01DX009 (ip), vehicle: water 104 % of control and 110 % of control

CCc1nc(N)nc(N)c1-c1ccc(Cl)cc1
inactive: dose: 4.0 mg/kg/injection, schedule: Q01DX009 (ip), vehicle: Klucel (hydroxypropylcellulose) (HPC) 93 % of control | dose: 4.0 mg/kg/injection, schedule: Q01DX009 (oral), vehicle: Klucel (hydroxypropylcellulose) (HPC) 102 % of control | dose: 4.0 mg/kg/injection, schedule: Q01DX009 (sc), vehicle: Klucel (hydroxypropylcellulose) (HPC) 90 % of control | dose: 4.0 mg/kg/injection, schedule: Q06HX004 (ip), vehicle: Klucel (hydroxypropylcellulose) (HPC) 107 % of control | dose: 4.0 mg/kg/injection, schedule: Q06HX008 (ip), vehicle: Klucel (hydroxypropylcellulose) (HPC) 91 % of control | dose: 8.0 mg/kg/injection, schedule: Q01DX009 (ip), vehicle: Klucel (hydroxypropylcellulose) (HPC) 95 % of control | dose: 8.0 mg/kg/injection, schedule: Q01DX009 (oral), vehicle: Klucel (hydroxypropylcellulose) (HPC) 100 % of control | dose: 8.0 mg/kg/injection, schedule: Q01DX009 (sc), vehicle: Klucel (hydroxypropylcellulose) (HPC) 92 % of control | dose: 8.0 mg/kg/injection, schedule: Q06HX004 (ip), vehicle: Klucel (hydroxypropylcellulose) (HPC) 90 % of control | dose: 8.0 mg/kg/injection, schedule: Q06HX008 (ip), vehicle: Klucel (hydroxypropylcellulose) (HPC) 104 % of control | dose: 8.0 mg/kg/injection, schedule: Q06HX012 (ip), vehicle: Klucel (hydroxypropylcellulose) (HPC) 100 % of control | dose: 16.0 mg/kg/injection, schedule: Q01DX001 (ip), vehicle: Klucel (hydroxypropylcellulose) (HPC) 96 % of control | dose: 16.0 mg/kg/injection, schedule: Q01DX001 (oral), vehicle: Klucel (hydroxypropylcellulose) (HPC) 106 % of control | dose: 16.0 mg/kg/injection, schedule: Q01DX001 (sc), vehicle: Klucel (hydroxypropylcellulose) (HPC) 113 % of control | dose: 16.0 mg/kg/injection, schedule: Q01DX009 (ip), vehicle: Klucel (hydroxypropylcellulose) (HPC) 113 % of control | dose: 16.0 mg/kg/injection, schedule: Q01DX009 (oral), vehicle: Klucel (hydroxypropylcellulose) (HPC) 113 % of control | dose: 16.0 mg/kg/injection, schedule: Q01DX009 (sc), vehicle: Klucel (hydroxypropylcellulose) (HPC) 98 % of control | dose: 16.0 mg/kg/injection, schedule: Q04DX003 (ip), vehicle: Klucel (hydroxypropylcellulose) (HPC) 86 % of control | dose: 16.0 mg/kg/injection, schedule: Q06HX004 (ip), vehicle: Klucel (hydroxypropylcellulose) (HPC) 98 % of control | dose: 16.0 mg/kg/injection, schedule: Q06HX008 (ip), vehicle: Klucel (hydroxypropylcellulose) (HPC) 108 % of control | dose: 16.0 mg/kg/injection, schedule: Q06HX012 (ip), vehicle: Klucel (hydroxypropylcellulose) (HPC) 87 % of control | dose: 16.0 mg/kg/injection, schedule: Q08DX002 (ip), vehicle: Klucel (hydroxypropylcellulose) (HPC) 87 % of control | dose: 32.0 mg/kg/injection, schedule: Q01DX001 (ip), vehicle: Klucel (hydroxypropylcellulose) (HPC) 96 % of control | dose: 32.0 mg/kg/injection, schedule: Q01DX001 (oral), vehicle: Klucel (hydroxypropylcellulose) (HPC) 104 % of control | dose: 32.0 mg/kg/injection, schedule: Q01DX001 (sc), vehicle: Klucel (hydroxypropylcellulose) (HPC) 117 % of control | dose: 32.0 mg/kg/injection, schedule: Q01DX009 (ip), vehicle: Klucel (hydroxypropylcellulose) (HPC) 102 % of control | dose: 32.0 mg/kg/injection, schedule: Q01DX009 (oral), vehicle: Klucel (hydroxypropylcellulose) (HPC) 120 % of control | dose: 32.0 mg/kg/injection, schedule: Q01DX009 (sc), vehicle: Klucel (hydroxypropylcellulose) (HPC) 103 % of control | dose: 32.0 mg/kg/injection, schedule: Q04DX003 (ip), vehicle: Klucel (hydroxypropylcellulose) (HPC) 100 % of control | dose: 32.0 mg/kg/injection, schedule: Q06HX008 (ip), vehicle: Klucel (hydroxypropylcellulose) (HPC) 100 % of control | dose: 32.0 mg/kg/injection, schedule: Q08DX002 (ip), vehicle: Klucel (hydroxypropylcellulose) (HPC) 102 % of control | dose: 64.0 mg/kg/injection, schedule: Q01DX001 (sc), vehicle: Klucel (hydroxypropylcellulose) (HPC) 117 % of control | dose: 64.0 mg/kg/injection, schedule: Q01DX009 (sc), vehicle: Klucel (hydroxypropylcellulose) (HPC) 101 % of control | dose: 64.0 mg/kg/injection, schedule: Q04DX003 (ip), vehicle: Klucel (hydroxypropylcellulose) (HPC) 100 % of control | dose: 64.0 mg/kg/injection, schedule: Q08DX002 (ip), vehicle: Klucel (hydroxypropylcellulose) (HPC) 100 % of control | dose: 128.0 mg/kg/injection, schedule: Q01DX001 (sc), vehicle: Klucel (hydroxypropylcellulose) (HPC) 106 % of control
